Columns and labels:
[1] = biological target: T1, Alpha-2A adrenergic receptor (Homo sapiens, UniProt P08913); assay type: functional, cell-based
T1 sequence (P08913 whole entry): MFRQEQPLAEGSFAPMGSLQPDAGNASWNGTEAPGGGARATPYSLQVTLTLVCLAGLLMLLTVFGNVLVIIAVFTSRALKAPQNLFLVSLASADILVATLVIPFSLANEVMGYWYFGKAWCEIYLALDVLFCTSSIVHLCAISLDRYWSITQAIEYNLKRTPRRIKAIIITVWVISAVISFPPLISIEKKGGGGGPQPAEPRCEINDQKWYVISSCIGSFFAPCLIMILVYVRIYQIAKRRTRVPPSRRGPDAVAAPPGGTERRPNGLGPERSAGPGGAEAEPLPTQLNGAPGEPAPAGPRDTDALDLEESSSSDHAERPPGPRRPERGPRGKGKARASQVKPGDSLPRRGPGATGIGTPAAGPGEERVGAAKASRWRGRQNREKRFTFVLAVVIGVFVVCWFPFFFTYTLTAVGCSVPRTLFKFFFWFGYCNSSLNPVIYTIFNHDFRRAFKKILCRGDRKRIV

[2] = biological target: T2, Muscarinic acetylcholine receptor M1 (Homo sapiens, UniProt P11229); assay type: functional
T2 sequence (P11229 whole entry): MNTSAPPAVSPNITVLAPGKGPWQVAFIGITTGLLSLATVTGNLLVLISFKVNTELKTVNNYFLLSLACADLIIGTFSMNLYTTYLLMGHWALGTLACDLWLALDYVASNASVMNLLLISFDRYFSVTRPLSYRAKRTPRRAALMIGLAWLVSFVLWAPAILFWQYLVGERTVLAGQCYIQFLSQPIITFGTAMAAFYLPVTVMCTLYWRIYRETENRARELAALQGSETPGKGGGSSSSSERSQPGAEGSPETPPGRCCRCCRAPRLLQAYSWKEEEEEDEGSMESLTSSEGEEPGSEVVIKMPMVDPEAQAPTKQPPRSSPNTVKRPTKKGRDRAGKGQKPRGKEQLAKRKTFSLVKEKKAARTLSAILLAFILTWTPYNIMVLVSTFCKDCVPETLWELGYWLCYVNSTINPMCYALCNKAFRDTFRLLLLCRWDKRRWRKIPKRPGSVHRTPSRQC

[3] = biological target: D(1A) dopamine receptor (Homo sapiens, UniProt P21728)
[4] = biological target: Prothrombin (Homo sapiens, UniProt P00734); assay type: functional
[5] = biological target: Mu-type opioid receptor (Homo sapiens, UniProt P35372)
[6] = biological target: T3, Amine oxidase [flavin-containing] A (Homo sapiens, UniProt P21397); assay type: functional
T3 sequence (P21397 whole entry): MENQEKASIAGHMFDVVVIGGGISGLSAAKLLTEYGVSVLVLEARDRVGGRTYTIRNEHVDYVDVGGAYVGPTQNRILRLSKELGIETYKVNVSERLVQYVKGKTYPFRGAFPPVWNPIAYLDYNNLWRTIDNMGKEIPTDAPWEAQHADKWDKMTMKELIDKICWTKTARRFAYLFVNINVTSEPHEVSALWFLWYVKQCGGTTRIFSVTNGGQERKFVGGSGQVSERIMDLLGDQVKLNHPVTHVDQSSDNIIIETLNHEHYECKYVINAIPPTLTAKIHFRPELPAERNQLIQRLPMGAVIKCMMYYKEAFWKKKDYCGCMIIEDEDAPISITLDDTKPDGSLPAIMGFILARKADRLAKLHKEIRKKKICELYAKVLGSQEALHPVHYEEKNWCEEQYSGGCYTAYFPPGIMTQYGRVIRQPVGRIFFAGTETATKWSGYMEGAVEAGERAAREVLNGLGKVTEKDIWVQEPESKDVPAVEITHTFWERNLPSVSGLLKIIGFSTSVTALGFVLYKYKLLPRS

[7] = biological target: Prostaglandin G/H synthase 1 (Homo sapiens, UniProt P23219); assay type: functional
[8] = biological target: T4, Progesterone receptor (Homo sapiens, UniProt P06401)
T4 sequence (P06401 whole entry): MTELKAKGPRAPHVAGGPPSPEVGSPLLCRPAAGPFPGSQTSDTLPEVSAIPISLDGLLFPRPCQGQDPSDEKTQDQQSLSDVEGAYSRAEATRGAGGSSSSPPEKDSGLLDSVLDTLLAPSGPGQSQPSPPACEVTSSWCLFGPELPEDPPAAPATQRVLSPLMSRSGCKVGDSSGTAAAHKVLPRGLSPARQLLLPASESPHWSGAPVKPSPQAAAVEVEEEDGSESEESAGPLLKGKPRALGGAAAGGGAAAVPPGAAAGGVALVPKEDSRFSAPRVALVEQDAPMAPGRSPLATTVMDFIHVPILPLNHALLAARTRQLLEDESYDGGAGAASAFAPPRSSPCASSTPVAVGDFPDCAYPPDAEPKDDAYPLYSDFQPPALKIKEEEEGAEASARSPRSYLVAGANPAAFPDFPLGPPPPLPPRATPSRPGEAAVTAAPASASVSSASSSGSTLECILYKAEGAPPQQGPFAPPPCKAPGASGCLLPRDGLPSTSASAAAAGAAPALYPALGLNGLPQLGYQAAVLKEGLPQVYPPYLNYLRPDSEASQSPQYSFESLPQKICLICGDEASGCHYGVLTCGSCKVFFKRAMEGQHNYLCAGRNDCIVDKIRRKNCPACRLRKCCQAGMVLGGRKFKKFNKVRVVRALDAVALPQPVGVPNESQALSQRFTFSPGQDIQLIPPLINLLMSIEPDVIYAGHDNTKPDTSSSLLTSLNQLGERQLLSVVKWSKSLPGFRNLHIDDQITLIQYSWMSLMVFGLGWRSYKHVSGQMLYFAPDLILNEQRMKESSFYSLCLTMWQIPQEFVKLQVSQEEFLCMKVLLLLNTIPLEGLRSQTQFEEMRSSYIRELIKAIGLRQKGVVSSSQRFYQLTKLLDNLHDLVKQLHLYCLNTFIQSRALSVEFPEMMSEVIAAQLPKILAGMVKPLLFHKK

Measured: AC50
Also: assay procedure not described here.

D(1A) dopamine receptor, sequence (P21728 whole entry): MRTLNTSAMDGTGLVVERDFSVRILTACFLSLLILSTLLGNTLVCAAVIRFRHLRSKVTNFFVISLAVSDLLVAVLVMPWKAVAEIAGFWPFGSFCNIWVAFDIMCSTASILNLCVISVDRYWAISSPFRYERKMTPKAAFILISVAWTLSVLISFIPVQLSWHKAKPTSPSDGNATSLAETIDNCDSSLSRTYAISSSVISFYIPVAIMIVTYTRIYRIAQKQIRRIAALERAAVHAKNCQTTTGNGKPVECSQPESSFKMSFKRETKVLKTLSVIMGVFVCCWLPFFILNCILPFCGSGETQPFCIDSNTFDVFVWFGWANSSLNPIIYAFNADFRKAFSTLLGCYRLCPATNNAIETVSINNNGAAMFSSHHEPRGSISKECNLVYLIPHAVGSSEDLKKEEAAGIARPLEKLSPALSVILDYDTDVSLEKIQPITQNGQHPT
Mu-type opioid receptor, sequence (P35372 whole entry): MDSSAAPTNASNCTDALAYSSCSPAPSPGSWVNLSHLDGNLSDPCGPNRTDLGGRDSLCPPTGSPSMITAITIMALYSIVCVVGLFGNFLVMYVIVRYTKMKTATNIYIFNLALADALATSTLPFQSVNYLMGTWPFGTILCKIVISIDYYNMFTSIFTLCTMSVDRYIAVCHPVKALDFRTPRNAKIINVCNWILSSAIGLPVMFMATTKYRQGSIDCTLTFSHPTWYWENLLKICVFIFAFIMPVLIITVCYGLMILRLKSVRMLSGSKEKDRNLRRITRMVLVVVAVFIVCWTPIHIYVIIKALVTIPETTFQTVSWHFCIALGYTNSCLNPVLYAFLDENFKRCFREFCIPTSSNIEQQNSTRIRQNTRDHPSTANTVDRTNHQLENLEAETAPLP
Prostaglandin G/H synthase 1, sequence (P23219 whole entry): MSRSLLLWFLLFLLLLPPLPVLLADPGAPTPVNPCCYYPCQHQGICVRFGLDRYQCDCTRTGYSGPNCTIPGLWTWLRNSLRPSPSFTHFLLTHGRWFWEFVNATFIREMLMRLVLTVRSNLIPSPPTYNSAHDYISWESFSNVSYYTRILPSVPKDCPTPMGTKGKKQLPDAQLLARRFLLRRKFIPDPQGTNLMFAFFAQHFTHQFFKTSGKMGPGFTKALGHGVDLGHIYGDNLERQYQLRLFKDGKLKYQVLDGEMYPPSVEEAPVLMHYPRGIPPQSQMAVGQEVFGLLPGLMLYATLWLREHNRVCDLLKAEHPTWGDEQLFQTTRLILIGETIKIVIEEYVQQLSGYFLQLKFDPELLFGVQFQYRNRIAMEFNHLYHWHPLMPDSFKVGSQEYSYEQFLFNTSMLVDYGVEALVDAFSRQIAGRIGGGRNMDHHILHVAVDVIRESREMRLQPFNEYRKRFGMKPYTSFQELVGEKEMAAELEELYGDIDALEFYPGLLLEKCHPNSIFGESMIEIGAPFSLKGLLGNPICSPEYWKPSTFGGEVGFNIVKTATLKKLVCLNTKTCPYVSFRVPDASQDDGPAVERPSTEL

CCN(CC)C(=O)C1(c2ccccc2)CC1CN (stereo not drawn)
> 30 µM: [1] | [2]

CN(C)C(=O)Oc1cccc([N+](C)(C)C)c1 [NEOSTIGMINE]
> 30 µM: [3] | [4] | [5] | [6] | [7] | [8]
